Results reported in US9269550B2, “Mass spectrometric methods for quantifying NPY 1-36 and NPY 3-36” (Georgetown University, priority 2010, dated 2016).

Legend:
SK-N-MC cells = test: Cell viability in SK-N-MC cells; type: cell-based, human
Y1Rs = target: T1, Y1Rs (Homo sapiens, UniProt P25929); details: cited from earlier work
T1 sequence (P25929 1-384): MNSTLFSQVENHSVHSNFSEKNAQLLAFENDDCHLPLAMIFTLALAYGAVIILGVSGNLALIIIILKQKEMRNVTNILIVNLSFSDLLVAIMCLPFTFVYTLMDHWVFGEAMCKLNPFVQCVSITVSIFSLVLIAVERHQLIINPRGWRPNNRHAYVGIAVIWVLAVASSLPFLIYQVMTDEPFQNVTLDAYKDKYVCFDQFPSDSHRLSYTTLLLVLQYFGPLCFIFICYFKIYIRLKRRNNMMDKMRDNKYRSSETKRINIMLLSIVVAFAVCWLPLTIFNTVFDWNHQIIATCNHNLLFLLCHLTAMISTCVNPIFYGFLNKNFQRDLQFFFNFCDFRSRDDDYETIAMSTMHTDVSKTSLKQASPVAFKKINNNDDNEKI

Substance	decrease in cell viability (SK-N-MC cells)	activity at Y1Rs (Y1Rs)
NPY 1-36: 36-amino acid peptide neurotransmitter found in the brain and autonomic nervous system	decrease in cell viability was achieved	–
NPY 3-36: 34-amino acid peptide fragment formed by dipeptidyl peptidase IV (DPPIV) cleavage of NPY 1-36	not	inactive
